Results as given in patent US4975434A, “Antiviral and anticancer cyclopentenyl cytosine” (priority 1989, dated 1990).
Values after ≈ are worked out from the molar mass of the structure shown. Values joined by “and” are separate entries in the source; they are usually repeats but may differ in a detail not shown here. Identical values can stand only once. Like-named read-outs stand apart in the source and are kept apart here.

What was measured:
[1] = system: tumors; assay: Antitumor activity (general statement)
[2] = system: two other RNA viruses; conditions: literature; cited from earlier work
[3] = system: several DNA viruses; conditions: literature; cited from earlier work
[4] = system: L1210 leukemia; conditions: cited from earlier work; for increase in life span: literature values
[5] = system: Herpes simplex type 1 (TK-), strain HF; conditions: literature; cited from earlier work
[6] = system: influenza viruses; conditions: literature; cited from earlier work
[7] = system: Rhinovirus 1A; conditions: literature; cited from earlier work
[8] = system: cells; conditions: literature; cited from earlier work
[9] = system: phosphorylation and deamination; conditions: cited from earlier work
[10] = system: enzyme which hydrolyzes S-adenosyl-L-homocysteine (AdoHcy); conditions: literature; cited from earlier work
[11] = system: quiescent normal cells; malignant cell lines; conditions: subtoxic concentrations; literature; cited from earlier work
[12] = system: H.Ep.-2 cells; conditions: literature; cited from earlier work
[13] = system: adenosine deaminase; conditions: literature; cited from earlier work
[14] = system: L1210 tumor cells; conditions: literature; cited from earlier work
[15] = system: Cytomegalovirus, strain AD 169; assay: Cytomegalovirus (CMV) Yield Reduction Assay; type: cell-based
[16] = system: MRC5 (diploid human embryonic lung cells); assay: Toxicity to MRC5 host cells (gross cell morphology) in the CMV assay; conditions: 320 μg/ml
[17] = system: Varicella-Zoster virus, isolate DM625; assay: Varicella-Zoster Virus (VZV) Plaque Reduction Assay; type: cell-based; conditions: Human alphaherpesvirus 3, 144 h, Huf cells
[18] = system: Vesicular Stomatitis virus, strain Indiana; type: cell-based; conditions: L929 cells, strain Indiana; two determinations
[19] = system: MX-1 Mammary; assay: Human tumor xenograft in athymic mice, MX-1 mammary (subrenal capsule); conditions: for % tumor weight inhibition: Table IV, QD1-9, day 0 to day 11
[20] = system: L1210 leukemia; assay: In vivo antitumor test, L1210 leukemia in mice; conditions: Table IV, QD1-9, terminated day 60
[21] = system: LOX Melanoma; assay: Human tumor xenograft in athymic mice, LOX melanoma (intraperitoneal); conditions: for % ILS: Table IV, QD1-9
[22] = system: CTP synthesase; assay: Inhibition of CTP synthesis (CTP synthesase); type: biochemical
[23] = system: Yellow Fever virus, strain Asibi; assay: microbe, parasite or virus in culture; type: cell-based, Yellow Fever virus; host Vero cells
[24] = system: tumors; conditions: literature; cited from earlier work
[25] = system: Vaccinia, strain Lederle CA; assay: microbe, parasite or virus in culture; type: cell-based
[26] = system: Herpes simplex type 2, strain MS; assay: Cytopathogenic inhibition test, HSV-2; type: cell-based; conditions: Vero cells, strain MS; for IC50: Human alphaherpesvirus 2, inhibition of virus-induced cytopathogenic effects, read-out: ID50 (the source's name)
[27] = system: vaccinia virus (IHD strain); type: in vivo, mouse (CD-I); conditions: Ara-A 300 mg/kg, QD 1-7 subcutaneous; PBS control 45.8
[28] = system: Herpes simplex type 1 (TK+), strain E-377; assay: Cytopathogenic inhibition test, HSV-1 TK+; type: cell-based; conditions: for IC50: Human alphaherpesvirus 1, inhibition of virus-induced cytopathogenic effects, read-out: ID50 (the source's name); for IC50 / VR (virus rating): Vero cells, strain E-377
[29] = system: Herpes simplex type 1 (TK-), strain HF; assay: microbe, parasite or virus in culture; type: cell-based
[30] = system: Punta Toro virus, strain Adames; assay: microbe, parasite or virus in culture; type: cell-based, Punta Toro virus; host Vero cells
[31] = system: Influenza (Hong Kong), strain A2 /Aichi/2/68; assay: microbe, parasite or virus in culture; type: cell-based, Influenza virus; host MDCK (Madin Darby canine kidney cells)
[32] = system: Janapese Encephalitis virus, strain Najayama; assay: Antiviral test in vitro, Japanese encephalitis virus; type: cell-based, Japanese encephalitis virus; host Vero cells

In the case of Nc1ccn([C@@H]2C=C(CO)[C@@H](O)[C@@H]2O)c(=O)n1, the antitumor activity [1] was “complete lack of antitumor activity”.
In the case of Nc1ccn([C@@H]2C[C@H](CO)[C@@H](O)[C@H]2O)c(=O)n1 [Carbodine], the antiviral activity [2] is given as “Slight carbodine activity”, the antiviral activity [3] is given as “Good activity” and the “increase in life span” value [4] is given as 82%. For the same compound, the “potency against HSV-1 TK- vs TK+” value [5] was “more potent against a strain of the HSV-1 virus deficient in its ability to induce thymidine kinase”, the antiviral activity [6] was “very effective” and the antiviral activity [7] was “Slight carbodine activity”.
For Nc1ncnc2c1ncn2[C@@H]1C=C(CO)[C@@H](O)[C@H]1O [Neplanocin A, 9[(1'R,2'S,3'R)-4'-Hydroxymethyl-2',3'dihydroxy-4 cyclopenten-1'-yl]adenine], the “side effects including cytotoxicity” value [8] is given as “multiplicity of side effects including cytotoxicity”, the phosphorylation and deamination ([9]; literature) is given as “readily phosphorylated” and the “inhibition of AdoHcy hydrolase” value [10] is given as “potent inhibitor”.
In the case of Nc1ncnc2c1ncn2[C@@H]1C[C@H](CO)[C@@H](O)[C@H]1O [C-Ado], the “effect on malignant cell lines” value [11] is listed as “inhibited growth”, the “effect on quiescent normal cells” value [11] is listed as “induced cell proliferation” and the “activity in the in vivo mouse L1210 model” value ([4]; literature) is listed as “inactivity in the in vivo mouse L1210 model system”. For the same compound, the cytotoxicity [12] was “highly cytotoxic”, the “affinity for adenosine deaminase relative to adenosine” value [13] was “a hundredfold lower” and the cytotoxicity [14] was “highly cytotoxic”.
Work on Nc1nc2c(ncn2COC(CO)CO)c(=O)[nH]1 [DHPG, 9(1,3-Dihydroxy-2-propoxymethyl)guanine, reference compound] yielded a log reduction at 1 µg/mL ([15]; Human betaherpesvirus 5, 144 h, 1.0 μg/ml, MRC5 cells, read-out: Reduction in Virus Yield) of 1.1, a log reduction at 10 µg/mL ([15]; Human betaherpesvirus 5, 144 h, 10 μg/ml, MRC5 cells, read-out: Reduction in Virus Yield) of 3.8 and a log reduction at 32 µg/mL ([15]; Human betaherpesvirus 5, 144 h, 32 μg/ml, MRC5 cells, read-out: Reduction in Virus Yield) of 5.3. For the same compound, the log reduction at 100 µg/mL ([15]; Human betaherpesvirus 5, 144 h, 100 μg/ml, MRC5 cells, read-out: Reduction in Virus Yield) was 5.3, the log reduction at 320 µg/mL ([15]; Human betaherpesvirus 5, 144 h, 320 μg/ml, MRC5 cells, read-out: Reduction in Virus Yield) was 5.3 and the antiviral activity ([15]; result in words) was “superior”. For the same compound, the “Host cell toxicity (gross cell morphology)” value [16] was “Very slightly toxic”, the inhibition at 1 µg/mL ([17]; 1.0 μg/ml) was 44% and the inhibition at 3.2 µg/mL ([17]; 3.2 μg/ml) was 46%. For the same compound, the inhibition at 10 µg/mL ([17]; 10 μg/ml) was 69%, the inhibition at 32 µg/mL ([17]; 32 μg/ml) was 85% and the inhibition at 100 µg/mL ([17]; 100 μg/ml) was 100%. For the same compound, the inhibition at 320 µg/mL ([17]; 320 μg/ml) was 100%.
In the case of Nc1ccn(C2CC(CO)C(O)C2O)c(=O)n1 (stereo not drawn) ["ara"-analogue], the “increase in life span” value [4] is given as 104% and the “activity against L1210 leukemia” value ([4]; literature, J. Pharm. Chem., 68, 668 (1979)) is given as “activity”.
In the case of Nc1nccc2c1ncn2[C@@H]1C[C@H](CO)[C@@H](O)[C@H]1O [3-Deazaaristeromycin, 3-deazaaristeromycin, reference compound], the phosphorylation and deamination [9] is given as “resistance towards phosphorylation and deamination”, the “inhibition of AdoHcy hydrolase” value [10] is given as “very potent and specific inhibitor” and the “VR (virus rating)” value [18] is given as 2.1 and 3.0.
For O=C1C=CN([C@@H]2O[C@H](CO)[C@@H](O)[C@H]2O)C(=O)C1 [3-Deazauridine, 3-deazauridine, reference compound], the “% tumor weight inhibition” value ([19]; 3-Deazauridine 200 mg/kg) was 11%, the “% tumor weight inhibition” value ([19]; 3-Deazauridine 300 mg/kg) was 64% and the activity ([19]; result in words) was “inactive”. The “% ILS” value ([20]; 3-Deazauridine 25 mg/kg) was 72%, the “% ILS” value ([20]; 3-Deazauridine 50 mg/kg) was 61% and the “% ILS” value ([20]; 3-Deazauridine 100 mg/kg) was 80%. For the same compound, the “% ILS” value ([21]; 3-Deazauridine 200 mg/kg) was 5%, the “% ILS” value ([21]; 3-Deazauridine 300 mg/kg) was 4% and the “tumor burden at the end of treatment” value ([21]; in vivo) was “three-log10 increase in tumor burden”. For the same compound, the activity ([21]; result in words) was “inactive” and the “inhibition of CTP synthesis” value ([22]; result in words) was “powerful inhibitors of CTP synthesis”.
With c1c[se]cn1 [Selenazole, reference compound] the “VR (virus rating)” value ([23]; Vero cells, strain Asibi) was 2.4, the IC50 ([23]; Yellow fever virus, Vero, read-out: ID50) was 1.8 µg/mL (≈ 13.6 µM) and the “TI (therapeutic index)” value ([23]; minimum toxic drug concentration / ID50, Vero cells) was 0.6.
In the case of Nc1ccn([C@@H]2O[C@H](CO)[C@@H](O)[C@@H]2O)c(=O)n1 [ara-C, cytosine arabinoside], the “activity against human and animal tumors” value [24] is listed as “well-known activity”.
In the case of Nc1ncnc2c1ncn2[C@@H]1O[C@H](CO)[C@@H](O)[C@@H]1O [Ara-A, arabinosyl adenine, reference compound], the IC50 ([25]; Orthopoxvirus vaccinia, Vero, in Chlorocebus sabaeus, read-out: ID50) was 9.8 µg/mL (≈ 36.7 µM), the “VR (virus rating)” value ([25]; Vero cells, strain Lederle CA) was 3.1 and the IC50 [26] was 49.9 µg/mL (≈ 187 µM). The “VR (virus rating)” value [26] was 1.3, the “Pox Count (mean value, 20 mice)” value [27] was 2.8 and the IC50 [28] was 13.6 µg/mL (≈ 50.9 µM). The “VR (virus rating)” value [28] was 1.8, the IC50 ([29]; Human alphaherpesvirus 1, Vero, in Chlorocebus sabaeus, read-out: ID50, Vero cells, strain HF, inhibition of virus-induced cytopathogenic effects, two determinations) was 2.1 µg/mL (≈ 7.86 µM) and the “VR (virus rating)” value ([29]; Vero cells, strain HF, two determinations) was 3.3 and 2.9.
In the case of Nc1nccc2c1ncn2[C@@H]1O[C@H](CO)[C@@H](O)[C@H]1O [3-deazaadenosine], the phosphorylation and deamination ([9]; literature) is listed as “resistance towards phosphorylation and deamination”.
For Nc1nc2c(ncn2COCCO)c(=O)[nH]1 [Acyclovir], the IC50 [26] was 5.3 µg/mL (≈ 23.5 µM), the “VR (virus rating)” value [26] was 4.5 and the IC50 [28] was 0.7 µg/mL (≈ 3.11 µM). The “VR (virus rating)” value [28] was 6.7, the antiviral activity ([28]; result in words) was “more active that CPE-C” and the antiviral activity ([29]; result in words) was “inactive”.
For Nc1ccn([C@@H]2C=C(COP(=O)(O)OP(=O)(O)OP(=O)(O)O)[C@@H](O)[C@H]2O)c(=O)n1 [triphosphate metabolite of CPE-C], the “inhibition of CTP-synthesase” value ([22]; triphosphate isolated from L1210 cell extracts) was “responsible for the inhibition of CTP-synthesase”.
With NC(=O)c1ncn([C@@H]2O[C@H](CO)[C@@H](O)[C@H]2O)n1 [Ribavirin, reference compound] the “VR (virus rating)” value [30] was 1.8, the IC50 ([30]; Punta Toro virus, Vero, read-out: ID50) was 20.1 µg/mL (≈ 82.3 µM) and the “VR (virus rating)” value [31] was 3.6. The IC50 ([31]; MDCK, in Canis lupus familiaris, read-out: ID50) was 18.7 µg/mL (≈ 76.6 µM), the IC50 ([32]; Japanese encephalitis virus, Vero, read-out: ID50) was 3 µg/mL (≈ 12.3 µM) and the “VR (virus rating)” value ([32]; Vero cells, strain Najayama) was 2.4.
